Measured values from BindingDB's records for doi:10.1111/j.1432-1033.1991.tb15734.x (Universit&Eacute, 1991).
Values joined by “and” are separate entries in the source; they are usually repeats but may differ in a detail not shown here. Identical values can stand only once. Non-standard residues stand in square brackets, D forms with d. Residues, ends and D or L forms follow the SMILES beside them. ξ: configuration not given here. Ile(3ξ) = CCC(C)[C@H](N)C(=O)O

Key:
VIP peptides [1] = molecular target: T1, VIP peptides (Homo sapiens, UniProt P01282)
T1 sequence (P01282 whole entry): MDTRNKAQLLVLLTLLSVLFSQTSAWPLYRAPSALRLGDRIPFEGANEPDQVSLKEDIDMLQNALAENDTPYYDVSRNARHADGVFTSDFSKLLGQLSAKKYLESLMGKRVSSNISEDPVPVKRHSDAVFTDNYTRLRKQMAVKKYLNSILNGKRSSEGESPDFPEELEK

VIP peptides [2] = molecular target: T2, VIP peptides (Rattus norvegicus, UniProt P01283)
T2 sequence (P01283 whole entry): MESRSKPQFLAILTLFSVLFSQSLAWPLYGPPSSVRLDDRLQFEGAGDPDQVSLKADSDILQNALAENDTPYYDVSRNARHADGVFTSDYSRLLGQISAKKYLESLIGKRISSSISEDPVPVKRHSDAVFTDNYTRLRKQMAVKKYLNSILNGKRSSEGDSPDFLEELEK

Row | Compound | Ki (VIP peptides [1]) | Ki (VIP peptides [2])
1 | H-HSDAVFTDNYTRYRKQMAVKKYLNSILN-OH [[Tyr13]VIP] | 40 nM | –
2 | CC[C@H](C)[C@H](NC(=O)CNC(=O)[C@H](CC(=O)O)NC(=O)[C@H](CO)NC(=O)[C@@H](N)Cc1cnc[nH]1)C(=O)N[C@@H](Cc1ccccc1)C(=O)N[C@H](C(=O)N[C@@H](CC(=O)O)C(=O)N[C@@H](CO)C(=O)N[C@@H](Cc1ccc(O)cc1)C(=O)N[C@@H](CO)C(=O)N[C@@H](CCCNC(=N)N)C(=O)N[C@@H](Cc1ccc(O)cc1)C(=O)N[C@@H](CCCNC(=N)N)C(=O)N[C@@H](CCCCN)C(=O)N[C@@H](CCC(N)=O)C(=O)N[C@@H](CCSC)C(=O)N[C@@H](C)C(=O)N[C@H](C(=O)N[C@@H](CCCCN)C(=O)N[C@@H](CCCCN)C(=O)N[C@@H](Cc1ccc(O)cc1)C(=O)N[C@@H](CC(C)C)C(=O)N[C@@H](C)C(=O)N[C@@H](C)C(=O)N[C@H](C(=O)N[C@@H](CC(C)C)C(=O)NCC(=O)N[C@@H](CCCCN)C(=O)N[C@@H](CCCNC(=N)N)C(=O)N[C@@H](Cc1ccc(O)cc1)C(=O)N[C@@H](CCCCN)C(=O)N[C@@H](CCC(N)=O)C(=O)N[C@@H](CCCNC(=N)N)C(=O)N[C@H](C(=O)N[C@@H](CCCCN)C(=O)N[C@@H](CC(N)=O)C(=O)N[C@@H](CCCCN)C(N)=O)C(C)C)C(C)C)C(C)C)[C@@H](C)O [PACAP] | – | 0.9 nM and 0.3 nM
3 | H-HSDAVFTDNYTRLRKQMAVKKYLAAVL-NH2 [VIP-PACAP] | 100 nM | –
4 | CC[C@H](C)[C@H](NC(=O)[C@H](CO)NC(=O)[C@H](CC(N)=O)NC(=O)[C@H](CC(C)C)NC(=O)[C@H](Cc1ccc(O)cc1)NC(=O)[C@H](CCCCN)NC(=O)[C@H](CCCCN)NC(=O)[C@@H](NC(=O)[C@H](C)NC(=O)[C@H](CCSC)NC(=O)[C@H](CCC(N)=O)NC(=O)[C@H](CCCCN)NC(=O)[C@H](CCCN=C(N)N)NC(=O)[C@H](CC(C)C)NC(=O)[C@H](CCCN=C(N)N)NC(=O)[C@@H](NC(=O)[C@H](Cc1ccc(O)cc1)NC(=O)[C@H](CC(N)=O)NC(=O)[C@H](CC(=O)O)NC(=O)[C@@H](NC(=O)[C@H](Cc1ccccc1)NC(=O)[C@@H](NC(=O)[C@H](C)NC(=O)[C@H](CC(=O)O)NC(=O)[C@H](CO)NC(=O)[C@@H](N)Cc1cnc[nH]1)C(C)C)[C@@H](C)O)[C@@H](C)O)C(C)C)C(=O)N[C@@H](CC(C)C)C(=O)N[C@@H](CC(N)=O)C(=O)O [CAS_37221-79-7] | 150 nM | –
5 | [C][C][C]([C])[C@H]([N]C(=O)[C][N]C(=O)[C@H]([C][C]C([O])=O)[N]C(=O)[C@@H]([N])[C][O])C(=O)[N][C@@H]([C]c1ccccc1)C(=O)[N][C@H](C(=O)[N][C@@H]([C]C([O])=O)C(=O)[N][C@@H]([C][O])C(=O)[N][C@@H]([C]c1ccc([O])cc1)C(=O)[N][C@@H]([C][O])C(=O)[N][C@@H]([C][C][C]N=C([N])[N])C(=O)[N][C@@H]([C]c1ccc([O])cc1)C(=O)[N][C@@H]([C][C][C]N=C([N])[N])C(=O)[N][C@@H]([C][C][C][C][N])C(=O)[N][C@@H]([C][C]C([N])=O)C(=O)[N][C@@H]([C][C]S[C])C(=O)[N][C@@H]([C])C(=O)[N][C@@H]([C]([C])[C])C(=O)[N][C@@H]([C][C][C][C][N])C(=O)[N][C@@H]([C][C][C][C][N])C(=O)[N][C@@H]([C]c1ccc([O])cc1)C(=O)[N][C@@H]([C][C]([C])[C])C(=O)[N][C@@H]([C])C(=O)[N][C@@H]([C])C(=O)[N][C@@H]([C]([C])[C])C(=O)[N][C@@H]([C][C]([C])[C])C([N])=O)[C@@H]([C])[O] [PACAP(2-27)] | 20 nM | 400 nM and 40 nM
6 | H-HSDAVFTDSYTRYRKQMAVKKYLNSILN-NH2 [[Ser9,Tyr13]VIP] | 15 nM | –
7 | H-HSDAVFTDSYTRLRKQMAVKKYLNSILN-NH2 [[Ser9]VIP] | 50 nM | –

Further compounds by falling Ki (VIP peptides [1]), results first:

Row | Ki (VIP peptides [1]) | Ki (VIP peptides [2]) | Compound
8 | 8 nM | – | H-HSDGIFTDSYTRLRKQMAVKKYLNSILN-OH [PACAP-VIP]
9 | 2 nM | 10 nM and 4 nM and 30 nM | CCC(C)[C@H](NC(=O)CNC(=O)[C@H](CC(=O)O)NC(=O)[C@@H](N)CO)C(=O)N[C@@H](Cc1ccccc1)C(=O)N[C@H](C(=O)N[C@@H](CC(=O)O)C(=O)N[C@@H](CO)C(=O)N[C@@H](Cc1ccc(O)cc1)C(=O)N[C@@H](CO)C(=O)N[C@@H](CCCN=C(N)N)C(=O)N[C@@H](Cc1ccc(O)cc1)C(=O)N[C@@H](CCCN=C(N)N)C(=O)N[C@@H](CCCCN)C(=O)N[C@@H](CCC(N)=O)C(=O)N[C@@H](CCSC)C(=O)N[C@@H](C)C(=O)N[C@H](C(=O)N[C@@H](CCCCN)C(=O)N[C@@H](CCCCN)C(=O)N[C@@H](Cc1ccc(O)cc1)C(=O)N[C@@H](CC(C)C)C(=O)N[C@@H](C)C(=O)N[C@@H](C)C(=O)N[C@H](C(=O)N[C@@H](CC(C)C)C(=O)NCC(=O)N[C@@H](CCCCN)C(=O)N[C@@H](CCCN=C(N)N)C(=O)N[C@@H](Cc1ccc(O)cc1)C(=O)N[C@@H](CCCCN)C(=O)N[C@@H](CCC(N)=O)C(=O)N[C@@H](CCCN=C(N)N)C(=O)N[C@H](C(=O)N[C@@H](CCCCN)C(=O)N[C@@H](CC(N)=O)C(=O)N[C@@H](CCCCN)C(N)=O)C(C)C)C(C)C)C(C)C)[C@@H](C)O (stereo partly drawn) [PACAP(2-38)] (H-SDG[Ile(3ξ)]FTDSYSRYRKQMAVKKYLAAVLGKRYKQRVKNK-NH2)
10 | 0.3 nM | 1.5 nM and 0.5 nM and 1 nM | CC[C@H](C)[C@H](NC(=O)CNC(=O)[C@H](CCC(=O)O)NC(=O)[C@H](CO)NC(=O)[C@@H](N)Cc1cnc[nH]1)C(=O)N[C@@H](Cc1ccccc1)C(=O)N[C@H](C(=O)N[C@@H](CC(=O)O)C(=O)N[C@@H](CO)C(=O)N[C@@H](Cc1ccc(O)cc1)C(=O)N[C@@H](CO)C(=O)N[C@@H](CCCNC(=N)N)C(=O)N[C@@H](Cc1ccc(O)cc1)C(=O)N[C@@H](CCCNC(=N)N)C(=O)N[C@@H](CCCCN)C(=O)N[C@@H](CCC(N)=O)C(=O)N[C@@H](CCSC)C(=O)N[C@@H](C)C(=O)N[C@H](C(=O)N[C@@H](CCCCN)C(=O)N[C@@H](CCCCN)C(=O)N[C@@H](Cc1ccc(O)cc1)C(=O)N[C@@H](CC(C)C)C(=O)N[C@@H](C)C(=O)N[C@@H](C)C(=O)N[C@H](C(=O)N[C@@H](CC(C)C)C(N)=O)C(C)C)C(C)C)[C@@H](C)O [PACAP(1-27)]
